Values quoted from earlier work as cited in publication PMC10116525 (ACS Omega, 2023).
Where two headings read alike, the source gives them in different places.

[1] = Lys^B29-lipidated insulin analogues

Substance | Duration of action [1] | Duration of action (precipitation in the subcutaneous space)
degludec | ≤ 42 h | –
detemir | up to 24 h | –
insulin glargine | – | up to 24 h
